According to publication PMC11115308 (Biochemical pharmacology, 2023):

Columns and labels:
CXCR4 [1] = biological target: T1, CXCR4 (Homo sapiens, UniProt P61073); experiment: β-Arrestin-2 recruitment in Tango CXCR4-bla U2OS cells; format: cell-based; details: antagonist at 1 μM
CXCR4 [2] = biological target: T1, CXCR4; format: cell-based; details: log value

T1 sequence (P61073 whole entry): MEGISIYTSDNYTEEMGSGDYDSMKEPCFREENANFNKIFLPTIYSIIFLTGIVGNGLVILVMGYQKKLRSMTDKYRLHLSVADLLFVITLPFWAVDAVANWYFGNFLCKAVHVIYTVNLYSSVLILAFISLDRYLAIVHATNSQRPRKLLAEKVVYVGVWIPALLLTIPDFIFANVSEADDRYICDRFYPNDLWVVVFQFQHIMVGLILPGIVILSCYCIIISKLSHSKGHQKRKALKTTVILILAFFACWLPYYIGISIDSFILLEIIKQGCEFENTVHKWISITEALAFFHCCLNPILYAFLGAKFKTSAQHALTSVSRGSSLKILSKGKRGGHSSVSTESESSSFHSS

Row | Compound | effect on CXCL12 β-arrestin response (CXCR4 [1]) | inhibition of forskolin-stimulated cAMP production log IC50 (CXCR4 [2])
1 | c1cc(CN2CCCNCCNCCCNCC2)ccc1CN1CCCNCCNCCCNCC1 [AMD3100] | abolishes CXCL12 β-arrestin response | –
2 | CXCL12: C-X-C Motif Chemokine Ligand 12, chemokine that binds CXCR4; endogenous ligand | – | −8.9 ± 0.1 M
